We go through 14 compounds from patent US8609836B2, “4-aryl-2-anilino-pyrimidines” (Janssen Pharmaceutica NV, priority 2008, dated 2013).

SMILES strings stand for the structures. pIC50: −log10 of the molar value.

In one assay the target is PLK1 T210D (h) (Homo sapiens, UniProt P53350, T210D). As to the kind of experiment: PLK1 human kinase inhibition, SPA. Type of assay: biochemical. The settings on record: read-out: PLK1 pIC50 (converted). The method, boiled down: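 Kinase incubated 40 min at room temperature with 0.1 μM ATP (2 nM [γ-33P]ATP tracer), 2 μM biotinylated peptide, pH 8.0 Hepes buffer with 2 mM MnCl2 and 1 mM DTT; enzyme at 0.125 ng/ml. Stopped with EDTA; 33P-peptide bound to streptavidin scintillant beads and imaged.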
Sequence of PLK1 T210D (h) (P53350 whole entry T210D): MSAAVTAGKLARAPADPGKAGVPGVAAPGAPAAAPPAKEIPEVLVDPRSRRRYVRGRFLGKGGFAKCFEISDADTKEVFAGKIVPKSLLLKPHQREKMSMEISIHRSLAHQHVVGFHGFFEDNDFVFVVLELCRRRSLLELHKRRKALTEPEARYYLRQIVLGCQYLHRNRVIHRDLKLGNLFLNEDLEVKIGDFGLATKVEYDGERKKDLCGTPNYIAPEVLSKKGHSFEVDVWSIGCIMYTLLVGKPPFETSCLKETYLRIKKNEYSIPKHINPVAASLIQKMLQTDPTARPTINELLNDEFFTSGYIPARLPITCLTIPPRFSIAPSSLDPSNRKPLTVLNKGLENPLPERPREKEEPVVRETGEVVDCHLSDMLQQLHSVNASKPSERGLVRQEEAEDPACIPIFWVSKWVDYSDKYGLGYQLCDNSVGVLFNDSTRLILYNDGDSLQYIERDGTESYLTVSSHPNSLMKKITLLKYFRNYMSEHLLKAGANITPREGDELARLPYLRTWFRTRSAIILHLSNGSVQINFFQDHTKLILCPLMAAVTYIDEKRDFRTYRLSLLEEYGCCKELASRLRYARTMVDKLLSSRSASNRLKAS

Another assay concerns the target CDK1/CyclinB (h) (Homo sapiens, UniProt P06493). Nature of the assay: CDK1/CyclinB human kinase inhibition, Invitrogen's FRET assay (Z'lyte). Type of assay: biochemical. The note with it: read-out: CDK1 pIC50 (converted). The method, boiled down:
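Read-out is the 460 nm/538 nm emission ratio (390 nm excitation) after a 60 min protease development step. Before that, 10 μM ATP and 2 μM Z'lyte Ser/Thr peptide 12 react 60 min at room temperature with 0.2 μg/ml human CDK1/CyclinB in Hepes pH 7.5 containing MgCl2, EGTA and Brij-35.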

The next assay has as its target PLK4 (h) (Homo sapiens, UniProt O00444). Nature of the assay: PLK-4 human kinase inhibition, scintillation proximity assay (SPA). Type of assay: biochemical. The settings on record: read-out: PLK4 pIC50 (converted). Background: Scintillation proximity formats need no separation of bound from free tracer.
The subject of the next assay is H1299. As to the kind of experiment: Cellular proliferation assay (Alamar blue), H1299. Type of assay: cell-based. The note with it: Homo sapiens, NCI-H1299; 10% FCS; 72 hours with compound; Alamar blue 4 h. In a few lines: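 This proliferation assay on NCI-H1299 cells used an initial 24-hour compound-free incubation after seeding, followed by 72 hours of compound treatment with 10% FCS serum at 37° C. and 5% (v/v) CO2. Viable cells were quantified by a 4 h Alamar blue incubation and fluorescent plate reading at 544 nm/590 nm, and effects were expressed relative to control cells.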

Another assay relates to A2780. As to the kind of experiment: Cellular proliferation assay (Alamar blue), A2780. Type of assay: cell-based. The note with it: Homo sapiens, 10% FCS, 72 hours with compound, Alamar blue 24 h, read-out: A2780 (cellular proliferation assay, Table 4) (converted). In a few lines: (§1)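 Alamar blue fluorescence (544/590 nm) measured viable cells after 72 h compound exposure; dye incubation 4 h (HCT-116), 6 h (U87-MG) or 24 h (A2780, MDA-MB-231). Cells pre-seeded 24 h, grown in 10% FCS, 37° C, 5% CO2; effect expressed relative to control cells.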
(Resazurin is reduced to fluorescent resorufin, in cell work by metabolically active cells.)

The subject of another assay is MDA-MB-231. Nature of the assay: Cellular proliferation assay (Alamar blue), MDA-MB-231. Type of assay: cell-based. The settings on record: Homo sapiens, 10% FCS, 72 hours with compound, Alamar blue 24 h, read-out: MDA/MB231 (cellular proliferation assay, Table 4) (converted). In a few lines: as §1
In the next assay the test system is HCT-116. Nature of the assay: Cellular proliferation assay (Alamar blue), HCT-116. The class given is cell-based. The note with it: Homo sapiens, 10% FCS, 72 hours with compound, Alamar blue 4 h. In a few lines:
as §1

Another assay deals with GSK3β (h) (Homo sapiens, UniProt P49841). As to the kind of experiment: GSK-3β human kinase inhibition, SPA. The class given is biochemical. The settings on record: read-out: GSK3b pIC50 (converted). The method, boiled down:
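Radiometric: 33P-labelled peptide captured on streptavidin SPA beads after EDTA stop and imaged on Leadseeker. Reaction ran 1 h at RT, 1 μM cold ATP with 2 nM [γ-33P]ATP, 1 μM biotin-peptide substrate, human GSK3β 1 μg/ml, pH 7.4 Tris buffer.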

In a further assay the target is CDK4/CyclinD1 (h) (Homo sapiens, UniProt P11802). Nature of the assay: CDK4/CyclinD1 human kinase inhibition, SPA with GST-pRb substrate. The settings on record: read-out: CDK4 pIC50 (converted). Type of assay: biochemical. In a few lines:
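Scintillation proximity format: after EDTA/Triton stop containing glutathione SPA beads, 33P incorporation was counted. The reaction ran 60 min at room temperature in Hepes pH 7.5 with NaF, MgCl2, DTT, using 2.5 μg/ml human CDK4/CyclinD1, 40 μg/ml GST-pRb substrate and 2 nM [γ-33P]ATP.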

Sequence of PLK4 (h) (O00444 whole entry): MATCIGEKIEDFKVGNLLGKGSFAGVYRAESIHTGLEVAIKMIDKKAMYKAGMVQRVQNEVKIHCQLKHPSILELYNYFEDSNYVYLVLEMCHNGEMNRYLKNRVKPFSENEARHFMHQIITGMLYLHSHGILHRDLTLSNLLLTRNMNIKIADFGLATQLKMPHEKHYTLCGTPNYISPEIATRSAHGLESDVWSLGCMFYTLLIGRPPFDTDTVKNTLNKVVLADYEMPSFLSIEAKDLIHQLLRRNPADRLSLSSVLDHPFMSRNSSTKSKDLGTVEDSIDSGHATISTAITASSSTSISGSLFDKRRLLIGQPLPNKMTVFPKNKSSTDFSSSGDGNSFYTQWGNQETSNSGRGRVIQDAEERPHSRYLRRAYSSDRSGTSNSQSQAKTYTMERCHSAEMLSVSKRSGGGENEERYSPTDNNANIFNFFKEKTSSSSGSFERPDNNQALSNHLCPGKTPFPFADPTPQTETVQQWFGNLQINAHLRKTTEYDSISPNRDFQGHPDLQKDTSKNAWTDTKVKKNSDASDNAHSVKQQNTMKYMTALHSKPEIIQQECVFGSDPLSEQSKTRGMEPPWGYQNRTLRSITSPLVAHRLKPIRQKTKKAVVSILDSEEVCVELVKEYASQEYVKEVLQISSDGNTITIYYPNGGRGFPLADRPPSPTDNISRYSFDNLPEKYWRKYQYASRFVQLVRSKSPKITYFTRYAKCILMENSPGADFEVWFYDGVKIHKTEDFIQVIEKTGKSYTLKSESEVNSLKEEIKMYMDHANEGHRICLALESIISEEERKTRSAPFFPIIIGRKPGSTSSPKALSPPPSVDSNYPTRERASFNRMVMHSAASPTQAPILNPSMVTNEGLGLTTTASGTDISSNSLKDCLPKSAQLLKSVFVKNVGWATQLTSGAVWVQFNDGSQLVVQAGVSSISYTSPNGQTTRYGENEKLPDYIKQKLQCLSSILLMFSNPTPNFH
Sequence of GSK3β (h) (P49841 whole entry): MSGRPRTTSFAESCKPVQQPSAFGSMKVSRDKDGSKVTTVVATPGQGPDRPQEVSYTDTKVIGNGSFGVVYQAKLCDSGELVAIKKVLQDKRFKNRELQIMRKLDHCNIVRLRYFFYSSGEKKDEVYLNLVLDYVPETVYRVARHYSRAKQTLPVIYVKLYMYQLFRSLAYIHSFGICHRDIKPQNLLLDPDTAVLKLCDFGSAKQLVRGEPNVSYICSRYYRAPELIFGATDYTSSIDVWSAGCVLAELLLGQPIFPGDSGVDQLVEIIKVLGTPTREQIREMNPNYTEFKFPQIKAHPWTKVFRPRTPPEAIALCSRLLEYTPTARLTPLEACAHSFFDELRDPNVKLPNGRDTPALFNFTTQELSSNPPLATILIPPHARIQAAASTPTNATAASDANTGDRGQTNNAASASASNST
Sequence of CDK4/CyclinD1 (h) (P11802 whole entry): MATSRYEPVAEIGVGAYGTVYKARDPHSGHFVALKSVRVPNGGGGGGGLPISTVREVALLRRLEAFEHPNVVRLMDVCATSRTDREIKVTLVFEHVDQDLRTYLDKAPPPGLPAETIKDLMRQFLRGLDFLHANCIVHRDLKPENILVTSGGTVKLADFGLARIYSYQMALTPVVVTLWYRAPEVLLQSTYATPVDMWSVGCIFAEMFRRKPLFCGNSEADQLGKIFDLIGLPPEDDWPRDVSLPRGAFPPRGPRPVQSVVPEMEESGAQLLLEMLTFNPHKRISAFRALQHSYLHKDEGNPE
Sequence of CDK4/CyclinD1 (h) (P24385 whole entry partner): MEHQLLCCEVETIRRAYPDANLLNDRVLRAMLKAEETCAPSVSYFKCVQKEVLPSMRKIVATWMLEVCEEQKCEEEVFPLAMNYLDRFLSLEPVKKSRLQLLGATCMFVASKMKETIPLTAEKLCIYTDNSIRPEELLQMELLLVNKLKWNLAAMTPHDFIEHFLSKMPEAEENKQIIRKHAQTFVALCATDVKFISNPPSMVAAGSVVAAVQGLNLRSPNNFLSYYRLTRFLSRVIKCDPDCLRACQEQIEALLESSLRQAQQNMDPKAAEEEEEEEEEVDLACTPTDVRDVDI
Sequence of CDK1/CyclinB (h) (P06493 whole entry): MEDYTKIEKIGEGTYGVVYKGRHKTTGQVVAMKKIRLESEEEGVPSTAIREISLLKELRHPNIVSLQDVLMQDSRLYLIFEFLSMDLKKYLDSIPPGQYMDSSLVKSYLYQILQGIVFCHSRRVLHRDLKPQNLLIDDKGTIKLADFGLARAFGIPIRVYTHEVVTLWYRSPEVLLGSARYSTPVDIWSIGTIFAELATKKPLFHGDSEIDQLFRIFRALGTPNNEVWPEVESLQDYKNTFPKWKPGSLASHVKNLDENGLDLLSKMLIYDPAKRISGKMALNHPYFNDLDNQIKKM
Sequence of CDK1/CyclinB (h) (P14635 whole entry partner): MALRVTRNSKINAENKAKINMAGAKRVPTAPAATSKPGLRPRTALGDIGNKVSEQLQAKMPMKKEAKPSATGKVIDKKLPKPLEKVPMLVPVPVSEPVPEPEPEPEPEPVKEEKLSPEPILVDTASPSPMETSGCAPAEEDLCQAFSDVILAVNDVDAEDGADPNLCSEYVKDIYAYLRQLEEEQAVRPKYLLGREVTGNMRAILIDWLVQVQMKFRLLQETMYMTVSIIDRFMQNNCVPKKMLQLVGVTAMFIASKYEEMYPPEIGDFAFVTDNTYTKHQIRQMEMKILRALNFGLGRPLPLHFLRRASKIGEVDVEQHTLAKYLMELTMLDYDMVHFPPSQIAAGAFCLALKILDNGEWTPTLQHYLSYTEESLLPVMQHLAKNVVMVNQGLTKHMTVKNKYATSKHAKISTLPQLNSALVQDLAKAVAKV

As to `COCCNC(=O)c1cc2cc(c1)Nc1nccc(n1)-c1cccc(c1)CNC(=O)[C@@H]1CCCN1C2` [Compound 44], the IC50 was above 10 µM at PLK1 T210D (h); 0.427 µM at CDK1/CyclinB (h); 0.407 µM on PLK4 (h); 6.03 µM in the assay with A2780; above 10 µM in the assay with MDA-MB-231; 0.166 µM on GSK3β (h). Moreover, on CDK4/CyclinD1 (h), the IC50 is 3.63 µM. The figures for the pIC50 in the assay on H1299 and in the assay with HCT-116 were below 5.00 and 5.74, respectively.
Consider `COc1cc2cc(c1OC)CN1CCC[C@H]1C(=O)N(C)CCN(C)c1cc(ccn1)-c1ccnc(n1)N2` [Compound 17], for which the IC50 at PLK1 T210D (h) was above 10 µM; on CDK1/CyclinB (h) it was 8.13 µM; on PLK4 (h) it was 2.69 µM; with A2780, above 10 µM; in the assay with MDA-MB-231 it was above 10 µM; on GSK3β (h), 0.851 µM. The IC50 at CDK4/CyclinD1 (h) is above 10 µM. Moreover, the pIC50 in the assay on H1299 and in the assay with HCT-116 was below 5.00 throughout.
On to `O=C1NCCNCc2ccc(cc2)-c2ccnc(n2)Nc2ccc(N3CCOCC3)c(c2)CN2CCC[C@@H]12` [Compound 157], for which the IC50 at PLK1 T210D (h) was above 10 µM; at CDK1/CyclinB (h), above 10 µM; on PLK4 (h) it was 1.07 µM; with A2780, 6.46 µM; with MDA-MB-231 it was above 10 µM; at GSK3β (h), 6.61 µM. For the same compound, on CDK4/CyclinD1 (h), the IC50 is above 10 µM. Further, the pIC50 – broadly, the IC50 on a negative log10 scale, so that one unit is a factor of ten – in the assay on H1299 was 5.29; in the assay on HCT-116 it was 5.19.
For the compound `O=C1CN2CCN(CC2)Cc2cc(ccc2N2CCOCC2)Nc2nccc(n2)-c2ccc(cc2)CN1` [Compound 194], the IC50 on PLK1 T210D (h) is above 10 µM; at CDK1/CyclinB (h), above 10 µM; at PLK4 (h), 1.12 µM; with A2780 it was above 10 µM; with MDA-MB-231, above 10 µM; at GSK3β (h), 6.03 µM. Also, the IC50 on CDK4/CyclinD1 (h) is 1.7 µM. Also, the pIC50 in the assay with H1299 and in the assay with HCT-116 was below 5.00 each time.
In the case of `O=C1NCc2ccc(cc2)-c2ccnc(n2)Nc2ccc(N3CCOCC3)c(c2)CN2C[C@H](O)C[C@@H]12` [Compound 56], the IC50 is above 10 µM at PLK1 T210D (h); above 10 µM on CDK1/CyclinB (h); around 10 µM at PLK4 (h); above 10 µM in the assay with A2780; above 10 µM in the assay on MDA-MB-231; above 10 µM on GSK3β (h). The IC50 at CDK4/CyclinD1 (h) was above 10 µM. For the same compound, the pIC50 in the assay with H1299 and in the assay with HCT-116 was below 5.00 each time.
Regarding `CC(C)Nc1cc2cc(c1)Nc1nccc(n1)-c1ccc(cc1)CN(C)CCCNC(=O)[C@@H]1CCCN1C2` [Compound 151], the IC50 at PLK1 T210D (h) is above 10 µM; at CDK1/CyclinB (h), above 10 µM; on PLK4 (h) it was 0.646 µM; in the assay with A2780 it was above 10 µM; in the assay on MDA-MB-231, above 10 µM; on GSK3β (h), above 10 µM. Also, on CDK4/CyclinD1 (h), the IC50 was above 10 µM. The pIC50 was below 5.00 with H1299 and 5.45 with HCT-116.
With `CN1CCNC(=O)[C@@H]2CCCN2Cc2cccc(c2)Nc2nccc(n2)-c2ccc(cc2)C1` [Compound 160], the IC50 was above 10 µM on PLK1 T210D (h); above 10 µM on CDK1/CyclinB (h); 1.55 µM on PLK4 (h); above 10 µM in the assay with A2780; above 10 µM in the assay on MDA-MB-231; 5.5 µM on GSK3β (h). Moreover, on CDK4/CyclinD1 (h), the IC50 is above 10 µM. Also, the pIC50 with H1299 and in the assay with HCT-116 was below 5.00 in each case.
With `O=C1NCc2cc(ccc2N2CCOCC2)Nc2nccc(n2)-c2cccc(c2)CCCN2CCC[C@@H]12` [Compound 149], the IC50 at PLK1 T210D (h) is above 10 µM; at CDK1/CyclinB (h), 0.00363 µM; at PLK4 (h) it was 0.813 µM; in the assay with A2780 it was 0.245 µM; with MDA-MB-231 it was 0.501 µM; on GSK3β (h) it was 0.117 µM. Besides, at CDK4/CyclinD1 (h), the IC50 was 0.0724 µM. Besides, the pIC50 is 6.08 with H1299 and 6.93 with HCT-116.
In the case of `COc1ccc2cc1CN(C)CCNC(=O)[C@@H]1CCCN1Cc1cc(NCCc3ccccc3)cc(c1)Nc1nccc-2n1` [Compound 163], the IC50 at PLK1 T210D (h) is above 10 µM; at CDK1/CyclinB (h), above 10 µM; on PLK4 (h), 2.45 µM; with A2780, 6.61 µM; with MDA-MB-231, above 10 µM; at GSK3β (h), above 10 µM. For the same compound, the IC50 at CDK4/CyclinD1 (h) is above 10 µM. For the same compound, the pIC50 is below 5.00 with H1299 and 5.38 in the assay on HCT-116.
With `CC(C)Nc1cc2cc(c1)Nc1nccc(n1)-c1ccc(cc1)CN(C)CCCNC(=O)CN1CCN(CC1)C2` [Compound 131], the IC50 is above 10 µM on PLK1 T210D (h); above 10 µM on CDK1/CyclinB (h); 1.26 µM at PLK4 (h); above 10 µM in the assay with A2780; above 10 µM with MDA-MB-231; 4.37 µM at GSK3β (h). Further, at CDK4/CyclinD1 (h), the IC50 was above 10 µM. Besides, the pIC50 in the assay with H1299 was below 5.00; with HCT-116, 5.28.
On to `C[C@@H]1NCc2ccc(Cl)c(c2)Nc2nccc(n2)-c2cccc(c2)CNC1=O` [Compound 186], for which the IC50 at PLK1 T210D (h) was above 10 µM; at CDK1/CyclinB (h) it was above 10 µM; at PLK4 (h) it was 1.02 µM; in the assay on A2780, above 10 µM; with MDA-MB-231, above 10 µM; at GSK3β (h), above 10 µM. Further, the IC50 on CDK4/CyclinD1 (h) is above 10 µM. Besides, the pIC50 in the assay on H1299 and with HCT-116 was below 5.00 throughout.
On to `CN1CCN(C(=O)c2cc3cc(c2)Nc2nccc(n2)-c2cccc(c2)CNC(=O)[C@@H]2CCCN2C3)CC1` [Compound 34], for which the IC50 at PLK1 T210D (h) is above 10 µM; on CDK1/CyclinB (h), 1.23 µM; on PLK4 (h) it was 0.186 µM; in the assay on A2780, above 10 µM; with MDA-MB-231, above 10 µM; at GSK3β (h), 0.525 µM. In addition, the IC50 on CDK4/CyclinD1 (h) is 8.71 µM. Further, the pIC50 was 5.21 with H1299 and 5.23 with HCT-116.
On to `COc1cc2cc(c1)Nc1nccc(n1)-c1ccc(OC)c(c1)CN(C)CCNC(=O)[C@@H]1CCCN1C2` [Compound 162], for which the IC50 was above 10 µM at PLK1 T210D (h); above 10 µM at CDK1/CyclinB (h); 2.04 µM at PLK4 (h); above 10 µM in the assay on A2780; above 10 µM in the assay on MDA-MB-231; 8.32 µM at GSK3β (h). The IC50 at CDK4/CyclinD1 (h) is above 10 µM. In addition, the pIC50 in the assay on H1299 and with HCT-116 was below 5.00 in each case.
As to `O=C1NCc2cccc(c2)-c2ccnc(n2)Nc2ccc(N3CCOCC3)c(c2)CN2C[C@@H](O)C[C@@H]12` [Compound 27], the IC50 is above 10 µM on PLK1 T210D (h); 1.91 µM on CDK1/CyclinB (h); 0.11 µM on PLK4 (h); 0.661 µM in the assay on A2780; 3.8 µM in the assay with MDA-MB-231; 0.141 µM on GSK3β (h). Moreover, the IC50 at CDK4/CyclinD1 (h) is 1.78 µM. Moreover, the pIC50 is 5.53 in the assay with H1299 and 6.05 in the assay with HCT-116.
